# Measurements from publication PMC3891821, “Discovery of Bile Salt Hydrolase Inhibitors Using an Efficient High-Throughput Screening System” (PLoS ONE, 2014).
# Where a name gives a salt, the structure may show the parent alone.
# Target: T1, rBSH (recombinant bile salt hydrolase) (Ligilactobacillus salivarius, UniProt J7H3P9)
# T1 construct: His-tagged full-length BSH, E. coli host, Ni-NTA purified
# T1 sequence (J7H3P9 2-324): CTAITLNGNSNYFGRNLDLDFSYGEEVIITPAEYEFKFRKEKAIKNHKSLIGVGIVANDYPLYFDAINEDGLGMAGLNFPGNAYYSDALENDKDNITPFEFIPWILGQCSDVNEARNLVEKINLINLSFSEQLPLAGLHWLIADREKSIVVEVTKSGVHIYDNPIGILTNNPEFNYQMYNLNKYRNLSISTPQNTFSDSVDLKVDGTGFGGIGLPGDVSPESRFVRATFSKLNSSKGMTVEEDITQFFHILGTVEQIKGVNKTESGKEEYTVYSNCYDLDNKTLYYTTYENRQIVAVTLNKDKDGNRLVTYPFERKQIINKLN
# Assay: two-step assay, amino acid release
# Type: biochemical
# Conditions: 37 C
row,SMILES,"two-step assay, amino acid release"
1,C[C@H](CCC(=O)NCC(=O)O)[C@H]1CC[C@H]2[C@@H]3[C@H](O)C[C@@H]4C[C@H](O)CC[C@]4(C)[C@H]3C[C@H](O)[C@]12C [sodium glycocholate],ascertain the amount of liberated amino acids from sodium glycocholate

# Target: T1, rBSH (recombinant bile salt hydrolase)
# Assay: two-step BSH assay, amino acid released from glycocholate
# Type: biochemical
# Conditions: not given
# Excerpt: two-step BSH assay, amino acid released from glycocholate on rBSH (recombinant bile salt hydrolase)
SMILES,inhibition at 5000 µM,inhibition at 1000 µM
O=C(/C=C/c1ccc(O)c(O)c1)OCCc1ccccc1 [Caffeic Acid Phenethyl Ester],99.7%,–
CC(C)c1cc2c(c(O)c1O)[C@@]1(C(=O)O)CCCC(C)(C)[C@@H]1CC2 [Carnosic Acid],96.8%,–
CC1=C(C(=O)O)N2C(=O)[C@@H](NC(=O)[C@H](N)C3=CCC=CC3)[C@H]2SC1 [Cephradine],61.8%,–
CC[C@H]1OC(=O)[C@H](C)[C@@H](O[C@H]2C[C@@](C)(OC)[C@@H](O)[C@H](C)O2)[C@H](C)[C@@H](O[C@@H]2O[C@H](C)C[C@H](N(C)C)[C@H]2O)[C@](C)(O)C[C@@H](C)C(=O)[C@H](C)[C@@H](O)[C@]1(C)O [Erythromycin],36.5%,–
O=c1c(O)c(-c2ccc(O)c(O)c2)oc2c(O)c(O)cc(O)c12 [Gossypetin],97.3%,–
CN(C)[C@@H]1C(=O)C(C(N)=O)=C(O)[C@@]2(O)C(=O)C3=C(O)c4c(O)cccc4[C@@](C)(O)[C@H]3[C@H](O)[C@@H]12 [Oxytetracycline],97.4%,–
CC[C@H]1OC(=O)C[C@@H](O)[C@H](C)[C@@H](O[C@@H]2O[C@H](C)[C@@H](O[C@H]3C[C@@](C)(O)[C@@H](O)[C@H](C)O3)[C@H](N(C)C)[C@H]2O)[C@@H](CC=O)C[C@@H](C)C(=O)/C=C/C(C)=C/[C@@H]1CO[C@@H]1O[C@H](C)[C@@H](O)[C@@H](OC)[C@H]1OC [Tylosin],23.8%,–

# The remaining lines, values ahead:
inhibition at 5000 µM,inhibition at 1000 µM,SMILES
61.2%,–,Cc1onc(-c2ccccc2Cl)c1C(=O)N[C@@H]1C(=O)N2[C@@H]1SC(C)(C)[C@@H]2C(=O)O [Cloxacillin]
92%,–,CN(C)[C@@H]1C(O)=C(C(N)=O)C(=O)[C@@]2(O)C(O)=C3C(=O)c4c(O)ccc(Cl)c4[C@@H](O)[C@H]3C[C@@H]12 [Demeclocycline Hydrochloride]
92.9%,–,C[C@H]1c2cccc(O)c2C(O)=C2C(=O)[C@]3(O)C(O)=C(C(N)=O)C(=O)[C@@H](N(C)C)[C@@H]3[C@@H](O)[C@@H]21 [Doxycycline Hydrochloride]
98.6%,–,O=C(O[C@@H]1Cc2c(O)cc(O)cc2O[C@@H]1c1ccc(O)c(O)c1)c1cc(O)c(O)c(O)c1 [Epicatechin monogallate]
67.3%,–,CCC[C@@H]1C[C@@H](C(=O)N[C@@H]([C@H]2O[C@H](SC)[C@H](O)[C@@H](O)[C@H]2O)[C@@H](C)O)N(C)C1 [Lincomycin]
87.2%,–,CC1=CC(=O)c2ccccc2C1=O [Menadione]
90.2%,–,C=C1c2cccc(O)c2C(=O)C2=C(O)[C@]3(O)C(=O)C(C(N)=O)=C(O)[C@@H](N(C)C)[C@@H]3[C@@H](O)[C@H]12 [Methacycline Hydrochloride]
83%,–,O=c1c(O)cccc2cc(O)c(O)c(O)c12 [Purpurogallin]
–,99.3%,Cc1cc2nc3c(=O)[nH]c(=O)nc-3n(C[C@H](O)[C@H](O)[C@H](O)CO)c2cc1C [Riboflavin]
48.7%,–,Cc1cc(C)nc(NS(=O)(=O)c2ccc(N)cc2)n1 [Sulfamethazine]

# Same assay, conditions: 5000 µM; sodium glycocholate; 30 min preincubation, 37 C
row,SMILES,% Inhibition
1,O=[N+]([O-])c1cc([As](=O)(O)O)ccc1O [Roxarsone],98.4%

# Target: T1, rBSH (recombinant bile salt hydrolase)
# Assay: microplate precipitation assay, A600
# Type: biochemical
# Conditions: pH 6.0, 37 C, DTT
row,SMILES,"microplate precipitation assay, A600"
1,C[C@H](CCC(=O)NCCS(=O)(=O)O)[C@H]1CC[C@H]2[C@@H]3CC[C@@H]4C[C@H](O)CC[C@]4(C)[C@H]3C[C@H](O)[C@]12C [taurodeoxycholic acid],taurodeoxycholic acid was better than other tested conjugated bile salts
